In the NIST ThermoML archive (doi:10.1016/j.fluid.2010.03.010):
Values joined by “and” are separate entries in the source; they are usually repeats but may differ in a detail not shown here. Identical values can stand only once.

Test: xn = mol fraction of the nth substance listed
Details: 298.03 K, 101.3 kPa, Liquid, Taylor dispersion method

## CCCC[n+]1ccn(C)c1.O=S(=O)([N-]S(=O)(=O)C(F)(F)F)C(F)(F)F + O
x2 = 0
  binary diffusion coefficient: 4e-08 m2/s [middle of 4 runs]

## CCCCn1cc[n+](C)c1.N#CN=C=[N-] [1-butyl-3-methylimidazolium dicyanamide] + O
x2 = 0
  binary diffusion coefficient: 2.08e-08 m2/s and 2.13e-08 m2/s and 2.11e-08 m2/s and 2.03e-08 m2/s and 1.98e-08 m2/s and 2.05e-08 m2/s and 2e-08 m2/s and 2.28e-08 m2/s

## CCOS(=O)(=O)[O-].CCn1cc[n+](C)c1 [1-ethyl-3-methylimidazolium ethyl sulfate] + O
x1 = 0
  binary diffusion coefficient: 9.62e-08 m2/s and 9.15e-08 m2/s and 9.84e-08 m2/s and 9.79e-08 m2/s
